# Laboratory results as given in US11623924B2, “Modulators of alpha-1 antitrypsin” (Vertex Pharmaceuticals Incorporated, priority 2018, dated 2023).
# Target: T1, NL20 human bronchial epithelial cells expressing human Z-AAT (Homo sapiens, UniProt P01009, E366K)
# T1 construct: expressed in transfected cells; host or cells: NL20 human bronchial epithelial cells (NL20-SI line, doxycycline added)
# Experiment: AAT Function Assay (MSD Assay NL20-SI Cell Line)
# Assay type: cell-based
# Conditions: NL20 Func. (EC50), functionally active AAT (AAT-hNE complex) in supernatant of NL20 cells expressing human Z-AAT
# Experimental: A. AAT Function Assay (MSD Assay NL20-SI Cell Line)
# Alpha-1 antitrypsin (AAT) is a SERPIN (serine protease inhibitor) that inactivates enzymes by binding to them covalently. This assay measured the amount of functionally active AAT in a sample in the presence of the disclosed compounds 1-215 by determining the ability of AAT to form an irreversible complex with human neutrophil Elastase (hNE). In practice, the sample (cell supernatant, blood sample, or other) was incubated with excess hNE to allow AAT-Elastase complex to be formed with all functional AAT in the sample. This complex was then captured to a microplate coated with an anti-AAT antibody. The complex captured to the plate was detected with a labeled anti-Elastase antibody and quantitated using a set of AAT standards spanning the concentration range present in the sample. Meso Scale Discovery (MSD) plate reader, Sulfo-tag labeling, and microplates were used to provide high sensitivity and wide dynamic range.
# • 1. Harvest NL20 human bronchial epithelial cells expressing human Z-AAT in OptiMEM™ containing Pen/Strep (P/S) • 2. Seed at 16,000 cells/well in 30 μL (384 well plate) • 3. Centrifuge plates briefly up to speed (1200 rpm) and place into 37° C. incubator overnight Day 2: Compound Addition and Coating Plates with Capture Antibody Compound Addition: • 1. Dispense 40 μL of OptiMEM™ (P/S) with doxycycline (1:1000 stock=0.1 μM final) to each well of the compound plate using a multidrop Combi in hood • 2. Remove cell plate from incubator, flip/blot and take immediately to Bravo to transfer compounds • 3. Return plates to incubator overnight Coat MSD Plates • 1. Dilute capture antibody (Polyclonal Goat anti-AAT) to 5 μg/mL (1:200) in PBS (no BSA). • 2. Dispense 25 μL of diluted capture antibody into all wells of MSD 384-well High Bind plate using the Multidrop equipped with a standard cassette. • 3. Incubate overnight at 4° C. Prepare Blocker A (BSA) Solutions • 1. Prepare solution of 5% MSD Blocker A (BSA) following the manufacturer's instructions. • 2. Further dilute the 5% MSD Blocker A in PBS to 1% (Blocker A) as needed. Day 3: Run MSD Assay
# Block Plates • 1. Wash plate 1× with 50 μL Wash buffer (PBS+0.5% Tween 20), and adds 35 μL 5% Block A buffer to block non-specific binding on washer dispenser • 2. Rotate plates on shaker for 1 hour at 600 rpm
# Prepare M-AAT Standards • 1. Dilute M-AAT stock to 1.6 μg/mL in 1% BSA Blocker A (Stock in −70° C.); then prepare 12×1:2 serial dilutions in 1% Blocker A • 2. The top starting final concentration on MSD plate is 320 ng/mL. These dilutions correspond to a final concentration of 320, 160, 80, 40, 20, 10, 5, 2.5, 1.25, 0.625, 0.312, 0.156 ng/mL.
# Dilution Plate • 1. Add 80 μL of 1% Assay buffer to all wells except columns 1/24 (standards) with Multidrop Combi • 2. Add diluted standards to columns 1 and 24 • 3. Centrifuge dilution plates 1200 rpm briefly
# Cell Plate • 1. Aspirate columns which will have the standards from the cell plates in the hood using 16-pin aspirator
# Prepare Human Neutrophil Elastase (hNE) • 1. Prepare 1 μg/mL Human Neutrophil Elastase by diluting in 1% Blocker A. • a. Small 100 μg vial—add 1 mL PBS (100 μg/mL) • i. This can then be diluted 1:100 in 1% Assay Buffer for a final 1 μg/mL concentration
# MSD—Add hNE (20 μL/well) • 1. After the MSD plate has blocked for at least 1 hour, wash plate 1× with 50 μL Wash buffer (PBS+0.5% Tween 20) and then add 20 μL hNE to each well
# Bravo—Cell Plate—Dilution Plate—MSD Plate
# Using the Bravo aspirate 10 μL from the cell plate, transfer to the dilution plate (9-fold dilution)
# • 1. Mix 25 μL 3×, then aspirate 5 μL, transfer to MSD plate (5-fold dilution) • 2. Mix 10 μL 3×. Total dilution is 45 fold. • 3. Shake plates at 600 rpm for 1.5 hours
# Add Functional detection hNE antibody • 1. Wash plate 1× with wash buffer • 2. […]
# T1 sequence (P01009 25-418 E366K): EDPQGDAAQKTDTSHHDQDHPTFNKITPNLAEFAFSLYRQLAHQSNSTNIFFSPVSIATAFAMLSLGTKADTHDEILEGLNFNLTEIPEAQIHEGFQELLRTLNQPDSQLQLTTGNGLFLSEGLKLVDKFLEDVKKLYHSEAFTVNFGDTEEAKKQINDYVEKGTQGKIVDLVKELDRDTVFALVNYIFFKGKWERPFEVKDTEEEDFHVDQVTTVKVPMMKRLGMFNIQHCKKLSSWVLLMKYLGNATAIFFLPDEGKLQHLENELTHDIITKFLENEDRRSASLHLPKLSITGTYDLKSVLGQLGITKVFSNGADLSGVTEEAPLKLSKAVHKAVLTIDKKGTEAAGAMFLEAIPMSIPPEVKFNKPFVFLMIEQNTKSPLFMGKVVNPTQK
row,Structure (SMILES),EC50
1,"CC(C)c1c(C#N)c2cc3[nH]ncc3cc2n1-c1ccccc1 [Compound 42, 6-isopropyl-5-phenyl-1H-pyrrolo[2,3-f]indazole-7-carbonitrile]",1.16 to 3 µM
2,"Cc1cccc(-n2c(C(C)C)c(C#N)c3cc4[nH]ncc4cc32)c1 [Compound 44, 6-isopropyl-5-(m-tolyl)-1H-pyrrolo[2,3-f]indazole-7-carbonitrile]",> 3 µM

# Same assay, conditions: functionally active AAT (AAT-hNE complex) in supernatant of NL20 cells expressing human Z-AAT; read-out: NL20 Func. (EC50)
row,Structure (SMILES),EC50
1,"Cc1cc(-n2c(C(C)C)c(S(C)(=O)=O)c3cc4[nH]ncc4cc32)ccc1F [Compound 11, 5-(4-fluoro-3-methyl-phenyl)-6-isopropyl-7-methylsulfonyl-1H-pyrrolo[2,3-f]indazole]",1.16 to 3 µM
2,"O=C(O)C1CC2(C1)CC(c1c(C3CCOC3)n(-c3ccc(F)cc3)c3cc4cn[nH]c4cc13)C2 (racemic) [Compound 140, 6-[5-(4-fluorophenyl)-6-tetrahydrofuran-3-yl-1H-pyrrolo[2,3-f]indazol-7-yl]spiro[3.3]heptane-2-carboxylic acid]",> 3 µM
3,"CC(C)c1c(C#N)c2cc3[nH]ncc3cc2n1-c1ccc(F)cc1 [Compound 29, 5-(4-fluorophenyl)-6-isopropyl-1H-pyrrolo[2,3-f]indazole-7-carbonitrile]",< 1.16 µM
4,"C=C(C)c1c(C23CC(C(=O)O)(C2)C3)c2cc3[nH]ncc3cc2n1-c1ccc(F)cc1 [Compound 208, 3-[5-(4-fluorophenyl)-6-isopropenyl-1H-pyrrolo[2,3-f]indazol-7-yl]bicyclo[1.1.1]pentane-1-carboxylic Acid]",< 1.16 µM
5,"Cc1cc(-n2c(C3CCOCC3)c(C[C@H]3C[C@H](C(=O)O)C3)c3cc4[nH]ncc4cc32)ccc1F (single isomer, unassigned) [Compound 98]",1.16 to 3 µM
6,"CC(C)c1c(S(C)(=O)=O)c2cc3[nH]ncc3cc2n1-c1ccc(F)cc1 [Compound 30, 5-(4-fluorophenyl)-6-isopropyl-7-methylsulfonyl-1H-pyrrolo[2,3-f]indazole]",> 3 µM
7,"O=C(O)C1CC(Cc2c(C3CCOCC3)n(-c3ccc(F)c(Cl)c3)c3cc4cn[nH]c4cc23)C1 (single isomer, unassigned) [Compound 81]",1.16 to 3 µM
8,CS(=O)(=O)CCc1c(C2CCOCC2)n(-c2ccc(F)cc2)c2cc3cn[nH]c3cc12 [Compound 151],1.16 to 3 µM
9,"CCCn1c(C2CCOCC2)c(C2CC3(CC(C(=O)O)C3)C2)c2cc3[nH]ncc3cc21 (centres unmarked) [Compound 196, 6-(5-propyl-6-tetrahydropyran-4-yl-1H-pyrrolo[2,3-f]indazol-7-yl)spiro[3.3]heptane-2-carboxylic Acid]",> 3 µM
10,"CC(C)c1c(CC2(C(=O)O)CC2)c2cc3[nH]ncc3cc2n1-c1cccc(C(F)(F)F)c1 [Compound 39, 1-[[6-isopropyl-5-[3-(trifluoromethyl)phenyl]-1H-pyrrolo[2,3-f]indazol-7-yl]methyl]cyclopropanecarboxylic Acid]",1.16 to 3 µM
11,Cc1cc(-n2c(C3CCOCC3)c(C3CC4(CC(C(=O)O)C4)C3)c3cc4[nH]ncc4cc32)ccc1F (racemic) [Compound 90],< 1.16 µM
12,Fc1ccc(-n2c(C3CCOCC3)c(CC3CCOCC3)c3cc4[nH]ncc4cc32)cc1 [Compound 145],< 1.16 µM
13,"Cc1cc(-n2c(C3CCOCC3)c([C@H]3C[C@](C)(C(=O)O)C3)c3cc4[nH]ncc4cc32)ccc1F (single isomer, unassigned) [Compound 104]",< 1.16 µM
14,"CCOC(=O)c1c(C(C)C)n(-c2ccc(F)c(C)c2)c2cc3cn[nH]c3cc12 [Compound 2, ethyl 5-(4-fluoro-3-methyl-phenyl)-6-isopropyl-1H-pyrrolo[2,3-f]indazole-7-carboxylate]",> 3 µM
15,"O=C(O)CCc1c(C2CNC2)n(-c2ccc(F)cc2)c2cc3cn[nH]c3cc12 [Compound 198, 3-[6-(azetidin-3-yl)-5-(4-fluorophenyl)-1H-pyrrolo[2,3-f]indazol-7-yl]propanoic Acid]",> 3 µM
16,O=C(O)CCc1c(C2CCOCC2)n(-c2ccc(F)c(Cl)c2)c2cc3cn[nH]c3cc12 [Compound 82],> 3 µM
17,"Cc1cc(F)ccc1-n1c(C2CCOCC2)c(CC2(C(=O)O)CC2)c2cc3[nH]ncc3cc21 [Compound 124, 1-[[5-(4-fluoro-2-methyl-phenyl)-6-tetrahydropyran-4-yl-1H-pyrrolo[2,3-f]indazol-7-yl]methyl]cyclopropanecarboxylic Acid]",1.16 to 3 µM
18,"CC(C)c1c(CCC(=O)O)c2cc3nn[nH]c3cc2n1-c1ccc(F)cc1 [Compound 214, 3-(5-(4-fluorophenyl)-6-isopropyl-3,5-dihydro-[1,2,3]triazolo[4,5-f]indol-7-yl)propanoic Acid]",> 3 µM
19,O=C(O)CCc1c(C2CCOCC2)n(-c2ccc(F)cc2)c2cc3cn[nH]c3cc12 [Compound 107],> 3 µM
20,"Cc1cc(-n2c(C(C)C)c(C3CC4(CC(C(=O)O)C4)C3)c3cc4[nH]nc(C)c4cc32)ccc1F (single isomer, unassigned) [Compound 58, 6-[5-(4-fluoro-3-methyl-phenyl)-6-isopropyl-3-methyl-1H-pyrrolo[2,3-f]indazol-7-yl]spiro[3.3]heptane-2-carboxylic acid]",1.16 to 3 µM
21,Cc1cc(-n2c(C3CCOCC3)c(CC34CC(C(=O)O)(C3)C4)c3cc4[nH]ncc4cc32)ccc1F [Compound 103],> 3 µM
22,Fc1ccc(-n2c(C3CCOCC3)c(CCCn3ccnc3)c3cc4[nH]ncc4cc32)cc1 [Compound 165],1.16 to 3 µM
23,Cc1cc(-n2c(C(C)C)c(C3CC4(CC(C(=O)O)C4)C3)c3cc4[nH]ncc4cc32)ccc1F (racemic) [Compound 24],< 1.16 µM
24,COCC(C)(C)c1c(CCCN)c2cc3[nH]ncc3cc2n1-c1ccc(F)cc1 [Compound 179],> 3 µM
25,"O=C(O)C1CC2(C1)CC(c1c(C3CCOCC3)n(-c3ccc(F)cc3)c3cc4cn[nH]c4c(F)c13)C2 (single isomer, unassigned) [Compound 136, 6-[8-fluoro-5-(4-fluorophenyl)-6-tetrahydropyran-4-yl-1H-pyrrolo[2,3-f]indazol-7-yl]spiro[3.3]heptane-2-carboxylic acid]",< 1.16 µM
26,"CC(C)c1c(C#N)c2cc3[nH]ncc3cc2n1-c1cccc(Cl)c1 [Compound 45, 5-(3-chlorophenyl)-6-isopropyl-1H-pyrrolo[2,3-f]indazole-7-carbonitrile]",> 3 µM
27,"Cc1cc(-n2c(C(C)C)c(CCC(=O)O)c3cc4c(cnn4C)cc32)ccc1F [Compound 195, 3-[5-(4-fluoro-3-methyl-phenyl)-6-isopropyl-1-methyl-pyrrolo[2,3-f]indazol-7-yl]propanoic Acid]",> 3 µM
28,"Cc1cc(-n2c(C(C)C)c(CCC(=O)O)c3cc4[nH]ncc4cc32)ccc1F [Compound 16, 3-[5-(4-fluoro-3-methyl-phenyl)-6-isopropyl-1H-pyrrolo[2,3-f]indazol-7-yl]propanoic acid]",1.16 to 3 µM
29,"[H][C@]1(C(=O)O)C[C@]2(C1)C[C@]([H])(c1c(C3CCOCC3)n(-c3ccc(F)cc3)c3cc4cn[nH]c4cc31)C2 (single isomer, unassigned) [Compound 110]",1.16 to 3 µM
30,"O=C(O)C1CC2(C1)CC(c1c(C3CCOCC3)n(-c3ccc(F)c(Cl)c3)c3cc4cn[nH]c4cc13)C2 (single isomer, unassigned) [Compound 77]",< 1.16 µM
